Laboratory results from paper PMC5376326, “Inhibition of ANO1 by luteolin and its cytotoxicity in human prostate cancer PC-3 cells” (PLoS ONE, 2017).
Values joined by “and” are separate entries in the source; they are usually repeats but may differ in a detail not shown here. Equal entries are not always repeated. Values belong to the compound of their own block, whether it stands above or below them.

Assays:
PC-3 cells [1] = test: Cell proliferation (MTS) assay in PC-3 cells; assay type: cell-based, human; settings: 24 hour; for Inhibition of cell proliferation, high versus low ANO1 expressing PC-3 cells: 3-100 μM
Description: PC-3 cells were seeded to a confluency of ~30% on Day 1 in 96-well plates. […] After 24 hour elapsed, the influence of luteolin and kaempferol on the cell viability was estimated by MTS assay. Briefly, the cells were reincubated with MTS for 1 hour. The soluble formazan produced by cellular reduction of MTS was quantified by measuring the absorbance at 490 nm with Infinite M200 (Tecan, Grödig, Austria) microplate reader. MTS assay was done using CellTiter 96 Aqueous One Solution Cell Proliferation Assay kit (Promega, Madison, WI).

ANO1 [2] = test: Quantitative real-time PCR of ANO1 mRNA in PC-3 cells; assay type: cell-based, human
Description: Total messenger RNA (mRNA) was extracted by using a TRIzol reagent (Invitrogen, Carlsbad, CA). Quantitative Real-time PCRs were performed using the StepOnePlus Real-Time PCR System (Applied Biosystems, CA) and Thunderbird SYBR qPCR mix (Toyobo, Osaka, Japan). The thermal cycling conditions comprised an initial step at 95°C for 5 minutes followed by 40 cycles at 95°C for 10 seconds, 55°C for 20 seconds, and 72°C for 10 seconds in a 96-well reaction plate. Primers used were as follows: ANO1-sense 5′-GGAGAAGCAGCATCTATTTG-3′, ANO1-antisense 5′ GATCTCATAGACAATCGTGC-3′, β-actin-sense 5′-GCAAAGACCTGTACGCCAACAC-3′ and β-actin-antisense 5′-ATCTCCTTCTGCATCCTGTC-3′. ANO1 mRNA levels were normalized to β-actin levels and the fold-change in gene expression was determined by using 2^-ΔΔCT method. Quantitative PCR experiments were carried out in triplicates.

ANO1 [3] = test: Immunoblot of ANO1 protein levels in PC-3 cells; assay type: cell-based, human
Description: Immunoblotting was performed as described previously. FRT and PC-3 cells were lysed with cell lysis buffer (50 mM Tris-HCl (pH 7.4), 1% Nonidet P-40, 0.25% sodium deoxycholate, 150 mM NaCl, 1 mM EDTA, 1 mM Na3VO4, and protease inhibitor mixture). Whole cell lysates were centrifuged at 15,000 g for 10 min at 4°C to remove the cell debris, and supernatant protein was separated by 4–12% Tris-glycine precast gel (KOMA BIOTECH, Seoul, Korea) and then transferred onto PVDF membrane (Millipore, Billerica, MA). Membrane was blocked with 5% non-fat skim milk in Tris-buffered saline including 0.1% Tween 20 (TBST) for 1 hour at room temperature. The membrane was then incubated overnight with primary ANO1 antibody (1:500 dilution, ab64085; Abcam Inc., Cambridge, MA). After washing three times with TBST, the blot was further incubated for 60 min at room temperature with an anti-rabbit secondary antibody (Santa Cruz Biotechnology, CA). The membrane was then washed three times with TBST and then visualized using the ECL Plus western blotting detection system (GE Healthcare, NJ).

PC-3 cells [4] = test: Intracellular calcium measurement (Fluo-4) in PC-3 cells; assay type: cell-based, human; settings: 100 μM ATP
Description: Intracellular calcium levels were monitored using Fluo-4 NW calcium assay kit (Invitrogen, Carlsbad, CA) as per the manufacturer's protocol in FRT and PC-3 cells. Briefly, the cells were cultured in a 96 well plate and incubated with 100 μL assay buffer including Fluo-4 NW. After 1 hour incubation, Fluo-4 fluorescence was measured with a FLUOstar Omega microplate reader equipped with syringe pumps and custom Fluo-4 excitation/emission filters (485/538 nm). Intracellular calcium increase was induced by application of 100 μM ATP.

ANO1 [5] = target: T1, ANO1 (Homo sapiens, UniProt Q5XXA6, DEL476-501); test: Apical membrane (short-circuit) current in ANO1-expressing FRT cells; assay type: cell-based; settings: for Block of ANO1 chloride channel current: pretreated 20 min, 100 μM ATP, FRT-ANO1 cells
T1 sequence (Q5XXA6 with tags, fused parts or gaps isoform Q5XXA6-5 DEL539-564): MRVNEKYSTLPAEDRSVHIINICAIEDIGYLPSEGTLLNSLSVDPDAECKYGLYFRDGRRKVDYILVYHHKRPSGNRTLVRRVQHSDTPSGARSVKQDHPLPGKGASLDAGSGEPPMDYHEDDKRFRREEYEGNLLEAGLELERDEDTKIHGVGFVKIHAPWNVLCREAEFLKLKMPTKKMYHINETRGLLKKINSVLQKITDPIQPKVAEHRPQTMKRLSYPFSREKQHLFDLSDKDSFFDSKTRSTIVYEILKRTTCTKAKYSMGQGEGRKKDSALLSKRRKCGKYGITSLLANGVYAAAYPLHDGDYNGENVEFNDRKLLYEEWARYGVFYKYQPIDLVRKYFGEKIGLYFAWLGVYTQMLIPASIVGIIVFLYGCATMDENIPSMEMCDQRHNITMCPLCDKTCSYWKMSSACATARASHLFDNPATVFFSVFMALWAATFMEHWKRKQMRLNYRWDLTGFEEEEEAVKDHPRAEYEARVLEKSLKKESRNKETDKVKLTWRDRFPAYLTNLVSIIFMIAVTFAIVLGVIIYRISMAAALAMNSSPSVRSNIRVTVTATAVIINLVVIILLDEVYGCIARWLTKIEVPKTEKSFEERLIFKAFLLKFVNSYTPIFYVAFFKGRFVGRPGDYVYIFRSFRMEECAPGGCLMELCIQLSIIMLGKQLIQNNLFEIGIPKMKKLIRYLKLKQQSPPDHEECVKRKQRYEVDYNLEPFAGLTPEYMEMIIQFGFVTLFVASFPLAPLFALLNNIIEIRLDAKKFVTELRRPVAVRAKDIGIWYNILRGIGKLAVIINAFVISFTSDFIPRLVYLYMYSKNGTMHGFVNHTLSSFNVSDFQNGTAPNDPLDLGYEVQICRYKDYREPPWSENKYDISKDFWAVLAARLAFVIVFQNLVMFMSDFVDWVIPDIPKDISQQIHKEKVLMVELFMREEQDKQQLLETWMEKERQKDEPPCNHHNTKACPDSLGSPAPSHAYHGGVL
Description: Snapwell inserts containing ANO1-expressing FRT cells were mounted in Ussing chambers (Physiologic Instruments, San Diego, CA). The basolateral bath was filled with HCO3^--buffered solution and the apical bath was filled with a half-Cl^- solution. The basolateral membrane was permeabilized with 250 μg/mL amphotericin B. The cells were bathed for a 20 min stabilization period and aerated with 95% O2 / 5%CO2 at 37°C. Luteolin and kaempferol were applied to the apical and basolateral bath solution and then ATP was added to the apical bath solution to induce intracellular calcium increase. Apical membrane currents were measured with an EVC4000 Multi-Channel V/I Clamp (World Precision Instruments, Sarasota, FL) and recorded using PowerLab 4/35 (AD Instruments, Castle Hill, Australia). Data were collected and analyzed with ADInstruments acquisition software Labchart Pro 7 software. The sampling rate was 4 Hz.

Block of ANO1 chloride channel current (ANO1 [5]; 10 μM): 36.2 ± 3.0%
Block of ANO1 chloride channel current (ANO1 [5]; 30 μM): 55.0 ± 4.1%
Block of ANO1 chloride channel current (ANO1 [5]; 100 μM): 89.3 ± 2.0%
SMILES: O=c1c(O)c(-c2ccc(O)cc2)oc2cc(O)cc(O)c12 [Kaempferol]
Inhibition of cell proliferation, high versus low ANO1 expressing PC-3 cells (PC-3 cells [1]): did not show the significant difference
Change of ANO1 gene expression levels (ANO1 [2]; 10 μM): slightly increased
Effect on ANO1 protein levels (ANO1 [3]; PC-3 cells expressing high levels of ANO1, 24 hour, indicated concentrations): did not affect
Effect on ATP-induced intracellular calcium increase (PC-3 cells [4]): did not alter

SMILES: O=c1cc(-c2ccc(O)c(O)c2)oc2cc(O)cc(O)c12 [luteolin]
Decrease of cell viability (PC-3 cells [1]; 30 μM, PC-3 cells expressing high levels of ANO1): 52.6 ± 3.8%
Inhibition of cell proliferation, high versus low ANO1 expressing PC-3 cells (PC-3 cells [1]): significantly stronger in PC-3 cells with high levels of ANO1 expression
Change of ANO1 gene expression levels (ANO1 [2]; 10 μM): slightly increased
Increase of ANO1 mRNA expression levels (ANO1 [2]; 10 μM): ~ 1.3 fold
Change of ANO1 gene expression levels (ANO1 [2]; 30 μM): significantly decreased
Decrease of ANO1 protein levels (ANO1 [3]; 10 μM, 24 hour, PC-3 cells expressing high levels of ANO1): 41.2 ± 1.5%
Decrease of ANO1 protein levels (ANO1 [3]; 30 μM, 24 hour, PC-3 cells expressing high levels of ANO1): 63.1 ± 5.7%
Time-dependent change of ANO1 protein levels (ANO1 [3]; 30 μM, PC-3 cells): significantly decreased in a time-dependent manner
Effect on ATP-induced intracellular calcium increase (PC-3 cells [4]): did not alter
Block of PAR2-AP-triggered ANO1 activation (ANO1 [5]; 100 μM, 20 min pretreatment, PAR2-AP 50 μM): almost completely blocked
Inhibition of ATP-induced ANO1 activation (apical current) (ANO1 [5]; 100 μM, ATP 100 μM): almost completely inhibited
IC50 (ANO1 [5]; FRT cells expressing ANO1, activated by 100 μM ATP, read-out: IC50, ANO1 chloride current (apical membrane current)): 9.8 µM and 9.77 µM and ~10 µM
Reversibility of ANO1 inhibition (ANO1 [5]; after washing 3 times for 5 min each, re-activation by 50 μM PAR2-AP): reversibly inhibited
